≈ marks a conversion by molar mass, not a printed value. Where two headings read alike, the source gives them in different places.
How the values were obtained:
[1] = tested on: Escherichia coli MC4100 harboring the IMP4213 (E. coli IMP); assay: microbe, parasite or virus in culture; type: cell-based; settings: 35° C., 22 hours; for MIC: Escherichia coli, 22 h, read-out: MIC (μg/mL) E. coli IMP, E. coli MC4100 IMP4213, increased outer-membrane permeability
Summary of the method: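 Top conc 4 μg/mL (protocol 2) or 0.5 μg/mL (protocol 3), 2-fold series, 10 points. Final OD600 0.0005; 22 h, 35° C. IMP4213 = permeable outer membrane.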

[2] = tested on: Escherichia coli ATCC 25922; assay: Minimum inhibitory concentration, broth micro-dilution (CLSI), E. coli; type: cell-based; settings: 35° C., 22 hours; for MIC: Escherichia coli, ATCC25922, 22 h
[3] = tested on: Methicillin Resistant Staphylococcus aureus strain USA 300, NRS384; assay: Minimum inhibitory concentration, broth micro-dilution (CLSI), S. aureus; type: cell-based; settings: 35° C., 22 hours; for MIC: Staphylococcus aureus, MRSA / NRS 384 / USA300, 22 h
Summary of the method: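 CLSI broth microdilution in cation-adjusted Mueller Hinton Broth with 0.002% Tween-80; inoculum final OD600 0.0005, 22 hours at 35° C. Ten 2-fold dilutions starting at 4 μg/mL (protocol 2) or 0.5 μg/mL (protocol 3).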

[4] = molecular target: T1, SpsB (Staphylococcus aureus signal peptidase) (Staphylococcus aureus, UniProt P0A070); assay: cell-based; type: biochemical; settings: SpsB IC50, whole-cell S. aureus (USA300 background, overexpressing SpsB) as SpsB source; fluorogenic peptide substrate, kinetic read 30 min
T1 construct: This assay uses a suspension of Staphylococcus aureus cells as a source of SpsB instead of recombinant SpsB protein; endogenous in cells; host or cells: S. aureus, USA300 background, overexpressing SpsB (whole-cell suspension from frozen pellets)
T1 sequence (P0A070 whole entry): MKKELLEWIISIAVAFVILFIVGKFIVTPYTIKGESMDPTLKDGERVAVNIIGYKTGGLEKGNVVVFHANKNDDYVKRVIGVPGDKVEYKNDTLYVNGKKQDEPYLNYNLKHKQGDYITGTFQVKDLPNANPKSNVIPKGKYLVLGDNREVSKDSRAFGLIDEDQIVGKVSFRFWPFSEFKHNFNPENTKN
Summary of the method: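 Cleavage of an internally quenched (Dabcyl)βAla-KPAKAAE(Edans) peptide, added as 20 μM solution mixed 1:1 with cells, was followed for 30 min at 340/490 nm. SpsB came from a suspension of SpsB-overexpressing USA300 S. aureus in Tween-80-containing PBS buffer. Slopes plotted against 3-fold compound dilutions gave IC50.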

[5] = E. coli ATCC 25922, read-out: MIC (μg/mL) E. coli
[6] = MRSA USA 300 NRS384, read-out: MIC (μg/mL) S. aureus

Compound	MIC [1] [µg/mL]	MIC [2, 5] [µg/mL]	MIC [3, 6] [µg/mL]	IC50 [4] [nM]	MIC ([2]; read-out: MIC (μg/mL) E. coli, E. coli ATCC 25922) [µg/mL]	MIC ([3]; read-out: MIC (μg/mL) S. aureus, MRSA USA 300 NRS384) [µg/mL]	MIC (μg/mL) E. coli IMP ([1]; E. coli MC4100 IMP4213, increased outer-membrane permeability) [µg/mL]	MIC (μg/mL) E. coli ([2]; E. coli ATCC 25922) [µg/mL]	MIC (μg/mL) S. aureus ([3]; MRSA USA 300 NRS384) [µg/mL]
CCCCCCCCCCCCCC(=O)N[C@@H](CCCCN)C(=O)N(C)[C@@H]1C(=O)N[C@@H](C)C(=O)N[C@H](C(=O)N[C@@H](C)C#N)Cc2ccc(OCCN)c(c2)-c2cc1ccc2OCCO [Compound 333]	< 0.063	1 (≈ 1.12 µM)	< 0.063	0.8	–	–	–	–	–
CCCCCCCCc1ccc(C(=O)N[C@@H](CCN)C(=O)N(C)[C@@H]2C(=O)N[C@@H](C)C(=O)N[C@H](C(=O)NCC#N)Cc3ccc(OCCN)c(c3)-c3cc2ccc3OCCN)c(F)c1 [Compound 184]	0.012 (≈ 0.0138 µM)	0.25 (≈ 0.287 µM)	0.094 (≈ 0.108 µM)	0.89	–	–	–	–	–
Cc1cc(-c2ncc(CC(C)C)cn2)ccc1C(=O)N[C@@H](CCN)C(=O)N(C)[C@@H]1C(=O)N[C@@H](C)C(=O)N[C@H](C(=O)NCC#N)Cc2ccc(OCCN)c(c2)-c2cc1ccc2OCCN [Compound 174]	0.026 (≈ 0.0292 µM)	0.83 (≈ 0.933 µM)	0.17 (≈ 0.191 µM)	0.91	–	–	–	–	–
CCCCCCCCCCNCCC(=O)N[C@@H](CCCCN)C(=O)N(C)[C@@H]1C(=O)N[C@@H](C)C(=O)N[C@H](C(=O)NCC#N)Cc2ccc(OCCN)c(c2)-c2cc1ccc2OCCN [Compound 101]	1.7 (≈ 1.94 µM)	48 (≈ 54.7 µM)	0.094 (≈ 0.107 µM)	0.72	–	–	–	–	–
CCCCc1ccc(-c2ccc(C(=O)N[C@@H](CCN)C(=O)N(C)[C@@H]3C(=O)N[C@@H](C)C(=O)N[C@H](C(=O)NCC#N)Cc4ccc(OCCN)c(c4)-c4cc3ccc4OCCN)cc2)cc1 [Compound 338]	0.023 (≈ 0.0263 µM)	–	–	< 0.5	0.19 (≈ 0.217 µM)	0.063 (≈ 0.0721 µM)	–	–	–
CCCC#Cc1ccc(C(=O)N[C@@H](CCN)C(=O)N(C)[C@@H]2C(=O)N[C@@H](C)C(=O)N[C@H](C(=O)NCC#N)Cc3ccc(OCCN)c(c3)-c3cc2ccc3OCCN)c(C)c1 [Compound 307]	0.031 (≈ 0.0377 µM)	0.88 (≈ 1.07 µM)	0.25 (≈ 0.304 µM)	3.5	–	–	–	–	–
CCCCc1ccc(C(=O)N[C@@H](CCN)C(=O)N(C)[C@@H]2C(=O)N[C@@H](C)C(=O)N[C@H](C(=O)NCC#N)Cc3ccc(OCCN)c(c3)-c3cc2ccc3OCCN)cn1 [Compound 227]	0.38 (≈ 0.476 µM)	16 (≈ 20 µM)	1.5 (≈ 1.88 µM)	5.5	–	–	–	–	–
Cc1cc(-c2ccc(C(F)(F)F)cc2)ccc1C(=O)N[C@@H](CCN)C(=O)N(C)[C@@H]1C(=O)N[C@@H](C)C(=O)N[C@H](C(=O)NCC#N)Cc2ccc(OCCN)c(c2)-c2cc1ccc2OCCN [Compound 143]	0.018 (≈ 0.02 µM)	0.44 (≈ 0.489 µM)	0.047 (≈ 0.0522 µM)	0.57	–	–	–	–	–
CCCCCCCCCCCC(=O)N[C@@H](CCCO)C(=O)N(C)[C@@H]1C(=O)N[C@@H](C)C(=O)N[C@H](C(=O)NCC#N)Cc2ccc(OCCN)c(c2)-c2cc1ccc2OCCN [Compound 264]	0.094 (≈ 0.113 µM)	16 (≈ 19.2 µM)	0.13 (≈ 0.156 µM)	2	–	–	–	–	–
CCCCCCCCc1nc(C)c(C(=O)N[C@@H](CCN)C(=O)N(C)[C@@H]2C(=O)N[C@@H](C)C(=O)N[C@H](C(=O)NCC#N)Cc3ccc(OCCN)c(c3)-c3cc2ccc3OCCN)s1 [Compound 213]	0.023 (≈ 0.0263 µM)	2 (≈ 2.29 µM)	0.047 (≈ 0.0537 µM)	0.64	–	–	–	–	–
CCCCCCCc1ccc(C(=O)N[C@@H](CCO)C(=O)N(C)[C@@H]2C(=O)N[C@@H](C)C(=O)N[C@H](C(=O)NCC#N)Cc3ccc(OCCN)c(c3)-c3cc2ccc3OCCN)c(C)c1 [Compound 260]	0.031 (≈ 0.0363 µM)	2 (≈ 2.34 µM)	0.094 (≈ 0.11 µM)	1.1	–	–	–	–	–
Cc1cc(C2CC2c2ccccc2)ccc1C(=O)N[C@@H](CCN)C(=O)N(C)[C@@H]1C(=O)N[C@@H](C)C(=O)N[C@H](C(=O)NCC#N)Cc2ccc(OCCN)c(c2)-c2cc1ccc2OCCN (mixture of isomers) [Compound 440]	–	–	–	0.81	–	–	0.063	8	0.19
CCCCCCCCc1ccc(C(=O)N[C@@H](CCN)C(=O)N(C)[C@@H]2C(=O)N[C@@H](C)C(=O)N[C@H](C(=O)NCC#N)Cc3ccc(OCCN)c(c3)-c3cc2ccc3OCCN)c(S(C)(=O)=O)c1 [Compound 212]	0.047 (≈ 0.0504 µM)	2 (≈ 2.15 µM)	0.031 (≈ 0.0333 µM)	0.62	–	–	–	–	–
